Source: patent US9890147B2 (BAYER PHARMA AKTIENGESELLSCHAFT, priority 2012, dated 2018)

Legend:
MOLM-13 cells = experiment: Cell proliferation assay (alamarBlue), MOLM-13; assay type: cell-based; conditions: Homo sapiens, 96 hours incubation, inhibition of cell proliferation
Experimental: In accordance with the invention, the capability of the substances to inhibit cell proliferation was determined Cell viability was determined using the alamarBlue® reagent (Invitrogen) in a Victor X3 Multilabel Reader (Perkin Elmer). The excitation wavelength was 530 nm and the emission wavelenth […].
The MOLM-13 cells (DSMZ, ACC 554) were sown at a concentration of 4000 cells/well in 100 μl growth medium (RPMI1640, 10% FCS) on 96-well microtitre plates.
After an overnight incubation at 37° C., the fluorescence values (CI values) were determined. The plates were then treated with various substance dilutions (1E-5 M, 3E-6 M, 1E-6M, 3E-7 M, 1E-7 M, 3E-8 M, 1E-8 M) and incubated at 37° C. for 72 (MV4-11-, LOX-IMVI cells), 96 (MOLM-13-, B16F10-, MDA-MB-431-, Caov-3 cells), 120 (MOLP-8-, KMS-12-PE cells) or 168 (LAPC-4 cells) hours. The fluorescence values (CO values) were then determined. For the data analysis, the CI values were subtracted from the CO values and the results were compared between cells treated with different dilutions of the substance or with buffer solution only. These were used to calculate the IC 50 values (substance concentration required for 50% inhibition of cell proliferation).

BRD4 (BD1) = molecular target: T1, BRD4 (BD1) (Homo sapiens, UniProt O60885); experiment: Binding assay BRD4/acetylated peptide H4 (TR-FRET protein-protein interaction assay)
T1 construct: with relatively long constructs also being possible, preferably amino acids 44-168; made in house; host or cells: E. coli
Summary of the method: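 His6-BRD4 BD1 (aa 67-152, E. coli), usually 10 nM, with biotinylated tetra-acetylated H4 peptide in HEPES pH 7.5 buffer; 11 compound concentrations 0.1 nM–20 μM in duplicate, 10 min preincubation, 1 h at 22 °C then ≥3 h at 4 °C. TR-FRET 665/620 ratio; IC50 by 4-parameter fit.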

| IC50 (MOLM-13 cells) [nM] | IC50 (BRD4 (BD1)) [nM] | SMILES |
| --- | --- | --- |
| 300 | 30 | CNC(=O)N1N=C(c2ccc(-c3cccc(S(C)(=O)=O)c3)cc2)c2cc(OC)c(OC)cc2CC1C (racemic) [Example 73, (±)-7,8-dimcthoxy-N,4-dimethyl-1-[3′-(methylsulphonyl)biphenyl-4-yl]-4,5-dihydro-3H-2,3-benzodiazepine-3-carboxamide] |
| 660 | 130 | CNC(=O)N1N=C(c2ccc(-c3ccc(F)c(C#N)c3)cc2)c2cc(OC)c(OC)cc2CC1C (racemic) [Example 75, (±)-1-(3′-cyano-4′-fluorobiphenyl-4-yl)-7,8-dimethoxy-N,4-dimethyl-4,5-dihydro-3H-2,3-benzodiazepine-3-carboxamide] |
| 490 | 40 | CNC(=O)N1N=C(c2ccc(-c3cccc(C(N)=O)c3)cc2)c2cc(OC)c(OC)cc2CC1C (racemic) [Example 77, (±)-1-(3′-carbamoylbiphenyl-4-yl)-7,8-dimethoxy-N,4-dimethyl-4,5-dihydro-3H-2,3-benzodiazepine-3-carboxamide] |
| 1080 | 290 | CNC(=O)N1N=C(c2ccc(-c3cccc(C(F)(F)F)c3)cc2)c2cc(OC)c(OC)cc2CC1C (racemic) [Example 85, (±)-7,8-dimethoxy-N,4-dimethyl-1-[3′-(trifluoromethyl)biphenyl-4-yl]-4,5-dihydro-3H-2,3-benzodiazepine-3-carboxamide] |
| 1430 | 390 | CNC(=O)N1N=C(c2ccc(-c3ccc(C(F)(F)F)cc3)cc2)c2cc(OC)c(OC)cc2CC1C (racemic) [Example 86, (±)-7,8-dimethoxy-N,4-dimethyl-1-[4′-(trifluoromethyl)biphenyl-4-yl]-4,5-dihydro-3H-2,3-benzodiazepine-3-carboxamide] |
| 560 | 110 | CNC(=O)N1N=C(c2ccc(-c3cccc(OC)c3)cc2)c2cc(OC)c(OC)cc2CC1C (racemic) [Example 87, (±)-7,8-dimethoxy-1-(3′-methoxybiphenyl-4-yl)-N,4-dimethyl-4,5-dihydro-3H-2,3-benzodiazepine-3-carboxamide] |
| 380 | 140 | CNC(=O)N1N=C(c2ccc(-c3cccc(F)c3)cc2)c2cc(OC)c(OC)cc2CC1C (racemic) [Example 89, (±)-1-(3′-fluorobiphenyl-4-yl)-7,8-dimethoxy-N,4-dimethyl-4,5-dihydro-3H-2,3-benzodiazepine-3-carboxamide] |
| 550 | 340 | CNC(=O)N1N=C(c2ccc(-c3ccccc3C(F)(F)F)cc2)c2cc(OC)c(OC)cc2CC1C (racemic) [Example 91, (±)-7,8-dimethoxy-N,4-dimethyl-1-[2′-(trifluoromethyl)biphenyl-4-yl]-4,5-dihydro-3H-2,3-benzodiazepine-3-carboxamide] |

The next lines start with the molecule.

| SMILES | IC50 (MOLM-13 cells) [nM] | IC50 (BRD4 (BD1)) [nM] |
| --- | --- | --- |
| CNC(=O)N1N=C(c2ccc(-c3ccc(OC)nc3)cc2)c2cc(OC)c(OC)cc2CC1C (racemic) [Example 66, (±)-7,8-dimethoxy-1-[4-(6-methoxypyridin-3-yl)phenyl]-N,4-dimethyl-4,5-dihydro-3H-2,3-benzodiazepine-3-carboxamide] | 630 | 70 |
| CNC(=O)N1N=C(c2ccc(-c3ccc([S+](C)[O-])cc3)cc2)c2cc(OC)c(OC)cc2CC1C (racemic) [Example 67, (±)-7,8-dimethoxy-N,4-dimethyl-1-[4′-(methylsulphinyl)biphenyl-4-yl]-4,5-dihydro-3H-2,3-benzodiazepine-3-carboxamide] | 470 | 40 |
| CNC(=O)N1N=C(c2ccc(-c3ccccc3NS(C)(=O)=O)cc2)c2cc(OC)c(OC)cc2CC1C (racemic) [Example 68, (±)-7,8-dimethoxy-N,4-dimethyl-1-{2′-[(methylsulphonyl)amino]-biphenyl-4-yl}-4,5-dihydro-3H-2,3-benzodiazepine-3-carboxamide] | 1170 | 70 |
| CNC(=O)N1N=C(c2ccc(-c3ccccc3S(C)(=O)=O)cc2)c2cc(OC)c(OC)cc2CC1C (racemic) [Example 69, (±)-7,8-dimethoxy-N,4-dimethyl-1-[2′-(methylsulphonyl)biphenyl-4-yl]-4,5-dihydro-3H-2,3-benzodiazepine-3-carboxamide] | 1210 | 130 |
| CNC(=O)N1N=C(c2ccc(-c3ccc(NS(C)(=O)=O)cc3)cc2)c2cc(OC)c(OC)cc2CC1C (racemic) [Example 70, (±)-7,8-dimethoxy-N,4-dimethyl-1-{4′-[(methylsulphonyl)amino]biphenyl-4-yl}-4,5-dihydro-3H-2,3-benzodiazepine-3-carboxamide] | 300 | 40 |
| CNC(=O)N1N=C(c2ccc(-c3ccccc3C)cc2)c2cc(OC)c(OC)cc2CC1C (racemic) [Example 72, (±)-7,8-dimethoxy-N,4-dimethyl-1-(2′-methylbiphenyl-4-yl)-4,5-dihydro-3H-2,3-benzodiazepine-3-carboxamide] | 660 | 210 |
| CNC(=O)N1N=C(c2ccc(-c3cnc(OC)nc3)cc2)c2cc(OC)c(OC)cc2CC1C (racemic) [Example 74, (±)-7,8-dimethoxy-1-[4-(2-methoxypyrimidin-5-yl)phenyl]-N,4-dimethyl-4,5-dihydro-3H-2,3-benzodiazepine-3-carboxamide] | 550 | 80 |
| CNC(=O)N1N=C(c2ccc(-c3cccnc3OC)cc2)c2cc(OC)c(OC)cc2CC1C (racemic) [Example 76, (±)-7,8-dimethoxy-1-[4-(2-methoxypyridin-3-yl)phenyl]-N,4-dimethyl-4,5-dihydro-3H-2,3-benzodiazepine-3-carboxamide] | 750 | 50 |
| CNC(=O)N1N=C(c2ccc(-c3ccc(C(=O)N4CCCC4)cc3)cc2)c2cc(OC)c(OC)cc2CC1C (racemic) [Example 78, (±)-7,8-dimethoxy-N,4-dimethyl-1-[4′-(pyrrolidin-1-ylcarbonyl)biphenyl-4-yl]-4,5-dihydro-3H-2,3-benzodiazepine-3-carboxamide] | 370 | 40 |
| CNC(=O)N1N=C(c2ccc(-c3ccc(C(=O)N4CCOCC4)cc3)cc2)c2cc(OC)c(OC)cc2CC1C (racemic) [Example 79, (±)-7,8-dimethoxy-N,4-dimethyl-1-[4′-(morpholin-4-ylcarbonyl)biphenyl-4-yl]-4,5-dihydro-3H-2,3-benzodiazepine-3-carboxamide] | 460 | 50 |
| CNC(=O)N1N=C(c2ccc(-c3cncc(OC)c3)cc2)c2cc(OC)c(OC)cc2CC1C (racemic) [Example 80, (±)-7,8-dimethoxy-1-[4-(5-methoxypyridin-3-yl)phenyl]-N,4-dimethyl-4,5-dihydro-3H-2,3-benzodiazepine-3-carboxamide] | 560 | 50 |
| CNC(=O)N1N=C(c2ccc(-c3cncc(C)c3)cc2)c2cc(OC)c(OC)cc2CC1C (racemic) [Example 81, (±)-7,8-dimethoxy-N,4-dimethyl-1-[4-(5-methylpyridin-3-yl)phenyl]-4,5-dihydro-3H-2,3-benzodiazepine-3-carboxamide] | 300 | 50 |
| CNC(=O)N1N=C(c2ccc(-c3cnccc3C)cc2)c2cc(OC)c(OC)cc2CC1C (racemic) [Example 82, (±)-7,8-dimethoxy-N,4-dimethyl-1-[4-(4-methylpyridin-3-yl)phenyl]-4,5-dihydro-3H-2,3-benzodiazepine-3-carboxamide] | 550 | 80 |
| CNC(=O)N1N=C(c2ccc(-c3ccc(C(=O)NC4CC4)cc3)cc2)c2cc(OC)c(OC)cc2CC1C (racemic) [Example 83, (±)-1-[4′-(cyclopropylcarbamoyl)biphenyl-4-yl]-7,8-dimethoxy-N,4-dimethyl-4,5-dihydro-3H-2,3-benzodiazepine-3-carboxamide] | 450 | 30 |
| CNC(=O)N1N=C(c2ccc(-c3ccncc3F)cc2)c2cc(OC)c(OC)cc2CC1C (racemic) [Example 84, (±)-1-[4-(3-fluoropyridin-4-yl)phenyl]-7,8-dimethoxy-N,4-dimethyl-4,5-dihydro-3H-2,3-benzodiazepine-3-carboxamide] | 340 | 60 |
| CNC(=O)N1N=C(c2ccc(-c3ccc(-c4ccc(Cl)s4)cc3)cc2)c2cc(OC)c(OC)cc2CC1C (racemic) [Example 88, (±)-1-[4′-(5-chlorothien-2-yl)biphenyl-4-yl]-7,8-dimethoxy-N,4-dimethyl-4,5-dihydro-3H-2,3-benzodiazepine-3-carboxamide] | 670 | 290 |
| CNC(=O)N1N=C(c2ccc(-c3ccccc3OC)cc2)c2cc(OC)c(OC)cc2CC1C (racemic) [Example 90, (±)-7,8-dimethoxy-1-(2′-methoxybiphenyl-4-yl)-N,4-40dimethyl-4,5-dihydro-3H-2,3-benzodiazepine-3-carboxamide] | 460 | 70 |
